“Also recorded” adds a separate entry of the source. Values belong to the substance of their own block, whether it stands above or below them. Ends that are not written are not given here.
Key:
[1] = molecular target: T1, Hsp27 ACD (Homo sapiens, UniProt P04792); assay: ITC of IPV-derived peptides with purified Hsp27 ACD; format: binding; details: Fig. 1d, 25 °C, one-site model; for N (binding stoichiometry): peptide (1 mM) into Hsp27 ACD (100 µM)
T1 construct: Hsp27 ACD (residues Q80–S176); made in house; host or cells: E. coli BL21 (DE3)
Protocol: (§1) For experiments with BAG3, proteins were dialyzed overnight against ITC buffer (25 mM Hepes, 5 mM MgCl2, 100 mM KCl, pH 7.5). For experiments with peptides, sHSPs were dialyzed overnight against SEC buffer, and peptides were dissolved in dialysis buffer. Concentrations were determined using BCA assays (Thermo Scientific), and the ITC experiment was performed with a MicroCal ITC200 (GE Healthcare) at 25 °C. In BAG3 experiments, sHSP (200 µM) in the syringe was titrated into a 10 μM cell solution of BAG3 protein. For peptide binding experiments, peptide (1 mM) was titrated into a cell containing Hsp27 proteins (100 µM). Calorimetric parameters were calculated using Origin® 7.0 software and fit with a one-site binding model.

[2] = tested on: BAG3; assay: Interaction of Hsp27 ACD with BAG3 by FCPIA; format: binding; details: Supplementary Figure 4
[3] = molecular target: T1, Hsp27 ACD; assay: NMR titration of VQIVYK peptide into 1H-15N Hsp27 ACD; format: binding; details: 1H-15N ACD spectra, 3.3-fold molar excess of peptide (500 µM), Supplementary Figure 3D
[4] = tested on: K18 tau; assay: Tau aggregation assay (thioflavin T fluorescence), K18; format: biochemical, human; details: 10 μM tau, chaperone 1:1 molar ratio (10 μM), heparin 44 µg/mL, 37 °C, Dulbecco's PBS pH 7.4
Protocol: (§2) Aggregation assays were performed as previously described. Briefly, all proteins were dialyzed overnight at 4 °C into assay buffer (Dulbecco’s PBS pH7.4, 2 mM MgCl2, 1 mM DTT). 0N4R or K18 Tau (10 μM) was pre-incubated in the presence/absence of chaperones (5–20 μM) for 30 min at 37 °C. Thioflavin T (Sigma) at a final concentration of 10 μM was added and aggregation was induced by the addition of a freshly prepared heparin sodium salt solution (Santa Cruz) at a final concentration of 44 µg/mL. For non-induced controls, assay buffer was added in place of heparin solution. The aggregation reaction was carried out at 37 °C with continuous shaking and monitored via Thioflavin T fluorescence (excitation = 444 nm, emission = 485 nm, cutoff = 480 nm) in a Spectramax M5 microplate reader (Molecular Devices). Readings were taken every 5 min for a minimum of 24 h. Baseline curves of non-induced controls (three replicates) were subtracted from induced samples (three replicates).

[5] = tested on: 0N4R tau; assay: Tau aggregation assay (thioflavin T fluorescence), 0N4R; format: biochemical, human; details: 10 μM tau, chaperone 1:1 molar ratio (10 μM), heparin 44 µg/mL, 37 °C, Dulbecco's PBS pH 7.4
Protocol: as §2

[6] = tested on: K18 tau; assay: 15N K18 HSQC / TROSY-HSQC NMR with unlabeled Hsp27 constructs; format: binding, human; details: 50 µM 15N K18, 100 µM Hsp27 construct (2:1), 10 °C, TROSY titration
Protocol: For ^15N K18 HSQC NMR experiments, all proteins were dialyzed overnight into NMR buffer (25 mM HEPES pH 7.4, 10 mM KCl, 5 mM MgCl2, 1 mM TCEP, 10% (v/v) D2O). Then, samples containing 50 μM ^15N-labeled tau and 50 or 100 μM unlabeled chaperone in NMR buffer were prepared. 2D HSQC spectra were acquired at 10 °C on a Bruker Avance AV800 spectrometer equipped with a cryoprobe. 16 scans were acquired per t1 value and spectral widths of 2100 Hz and 10,416 Hz were used in the ^1H and ^15N dimensions, respectively. Spectra were processed using rNMR and Sparky based on deposited tau assignments (Barre 2013, BioMagResBank accession number 19253). Signal intensity ratios were calculated using Prism, by dividing the intensity of chaperone-bound peaks by intensity of the same peak in the unbound spectra.
The ^15N TROSY HSQC experiments were performed on a Bruker Avance 800 MHz spectrometer equipped with the TXO cryogenic probe at 283 K. The [U-^15N] K18 proteins were dissolved at a concentration of 0.05–0.15 mM in 25 mM Hepes, 10 mM KCl, 5 mM MgCl2, 1 mM TCEP at pH 7.0 and titrated with the Hsp27 proteins in the same buffer. The ^1H–^15N TROSY HSQC experiments were performed with 2048 direct (^1H) and 512 indirect (^15N) points with the spectral width of 16 ppm and 36 ppm, respectively. All NMR spectra were processed by Topspin 3.1, and analyzed with Sparky (Goddard and Kneller, SPARKY 3-NMR Assignment and Integration Software. University of California, San Francisco, CA).

[7] = tested on: K18 tau; assay: Competitive ELISA on immobilized K18 tau saturated with biotin-labelled Hsc70; parameters: species or system human; details: Supplementary Figure 3A, binding not saturable, read-out: IC50 (estimated), competition with biotin-labelled Hsc70 for immobilized K18 tau
From the text: B. Hsp27 ACD binding to K18tau cannot be measured by ITC
A. Hsp27 ACD has a weak affinity for tau,by ELISA
C. The interaction is also estimated tobe weak by NMR titration[Competitor], uM
D. NMR titration of VQIVYK peptide into
Supplementary Figure 3. Hsp27 ACD has a weak affinity for K18 tau. (A) K18 tau was immobilized onto ELISA plates and saturated with biotin-labelled, human Hsc70, which shares binding sites with Hsp27 ACD in the MTBRs. Competition with unlabelled Hsc70 (control) or Hsp27 ACD was then carried out. Hsp27 ACD was estimated to have an IC50 > 100 µM. (B) Binding of Hsp27 ACD to K18 tau was not able to be measured by ITC, due to solubility limits. (C) NMR titrations (see Figure S5A) also […]
interaction. CSPs of Hsp27 ACD in the presence of 3.3-fold molar excess of PHF6* peptide (500 µM).
(also on this page, place not known: [Competitor], OD450 tau, K18 tau to be by 4 normalized CSP [((δN/5) +γH ); ppm] 2 0.52 CSP (PPM) titration Hsp27) […]

[8] = Thermal shift assay (differential scanning fluorimetry); format: physicochemical; details: DSF, 0.3 mg/mL in 50 mM NaPi pH 7.4, 700 mM NaCl, 50 mM LiCl, SYPRO Orange
Protocol: Samples of Hsp27 (25 µL; 0.3 mg/mL) in DSF buffer (50 mM NaPi pH 7.4, 700 mM NaCl, 50 mM LiCl) with a 5× final concentration of SYPRO Orange (Sigma) were placed into a white 96-well plate with optically clear caps. Melt curves were acquired on a Stratagene Mx300P RT-PCR using the SYPRO filter set. Samples were heated from 25 to 95 °C in 1 °C increments for 2 min, cooled to 25 °C at each cycle, and fluorescence was measured. The melting temperature was determined using a Boltzmann fit in Prism.

[9] = molecular target: T2, ΔNTD GPG (Homo sapiens, UniProt P04792, I181G/V183G); assay: ITC of optimized IPV peptide with Hsp27 ΔNTD GPG; format: binding; details: Fig. 4b, peptide (1 mM) into ΔNTD GPG (100 µM), 25 °C, mean ± SEM, minimum of three independent experiments
T2 construct: For all other Hsp27 constructs (GPG, ΔNTD consisting of residues 80–205); inferred from the PMCSG7 vector and Ni-NTA purification) (N); made in house; host or cells: E. coli BL21 (DE3)
Protocol: as §1

[10] = molecular target: T3, Hsp27 WT (Homo sapiens, UniProt P04792); assay: ITC of optimized IPV peptide with Hsp27 WT; format: binding; details: Fig. 4b, peptide (1 mM) into full-length Hsp27 WT (100 µM), 25 °C, mean ± SEM, minimum of three independent experiments
T3 construct: Vectors for the expression of full-length human Hsp27; made in house; host or cells: E. coli BL21 (DE3)
Protocol: as §1

[11] = molecular target: T4, Hsp27 3D (Homo sapiens, UniProt P04792, S15D/S78D/S82D); assay: ITC of optimized IPV peptide with Hsp27 3D; format: binding; details: Fig. 4b, peptide (1 mM) into Hsp27 3D (100 µM), 25 °C, mean ± SEM, minimum of three independent experiments
T4 construct: Sample aggregation curves of tau constructs with full-length Hsp27; made in house; host or cells: E. coli BL21 (DE3)
Protocol: as §1

[12] = Fig. 4a, Boltzmann fit, mean ± SD of three independent experiments

T1 sequence (P04792 80-176): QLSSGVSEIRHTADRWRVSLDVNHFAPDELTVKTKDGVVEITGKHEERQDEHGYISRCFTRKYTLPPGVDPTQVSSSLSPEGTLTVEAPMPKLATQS
T4 sequence (P04792 whole entry S15D/S78D/S82D): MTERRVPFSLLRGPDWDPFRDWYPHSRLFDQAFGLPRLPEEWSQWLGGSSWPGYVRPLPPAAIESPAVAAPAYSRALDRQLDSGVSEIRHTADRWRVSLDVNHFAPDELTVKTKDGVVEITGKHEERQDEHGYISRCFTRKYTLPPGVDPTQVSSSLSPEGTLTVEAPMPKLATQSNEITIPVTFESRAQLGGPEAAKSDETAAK
T2 sequence (P04792 80-205 I181G/V183G limits assumed): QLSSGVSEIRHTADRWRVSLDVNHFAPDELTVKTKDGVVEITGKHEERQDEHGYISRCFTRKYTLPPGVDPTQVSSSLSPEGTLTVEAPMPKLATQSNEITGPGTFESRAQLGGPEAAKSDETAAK
T3 sequence (P04792 whole entry): as the sequence (P04792 whole entry S15D/S78D/S82D) above, with D15S, D78S, D82S counted along it

Substance: EITIPVTFE [Hsp27 IPV]
N (binding stoichiometry) [1]: 0.90
Kd ([1]; peptide (1 mM) titrated into Hsp27 ACD (100 µM), SEC buffer (50 mM sodium phosphate, 100 mM NaCl), mean ± SEM, minimum of three independent experiments, ND = no detectable binding): > 25 µM

Substance: VQIVYK [PHF6* peptide, 6-mer PHF6* peptide from tau]
Binding to Hsp27 ACD by NMR titration (chemical shift changes) [3]: unable to produce saturable chemical shift changes
Binding to Hsp27 ACD by NMR titration (chemical shift changes) ([3]; listed as VQIVYK peptide): weak interaction; also recorded: weak/no

Substance: ΔNTD: Hsp27 with NTD deleted, residues 80–205
Effect on aggregation of K18 tau (ThT fluorescence) [4]: ablated Hsp27’s ability to delay tau aggregation
Effect on aggregation of 0N4R tau (ThT fluorescence) [5]: ablated Hsp27’s ability to delay tau aggregation

Substance: EIAIPVTHE [T180A]
N (binding stoichiometry) [1]: 0.65

Substance: Hsp27 X: WT Hsp27 cross-linked with gluteraldehyde
Effect on aggregation of K18 tau (ThT fluorescence) [4]: severely compromised
Effect on aggregation of 0N4R tau (ThT fluorescence) [5]: severely compromised

Substance: WT: full-length human Hsp27
Effect on aggregation of K18 tau (ThT fluorescence) [4]: prevents aggregation
Binding to 15N K18 tau by NMR (peak broadening / CSPs) [6]: does not
Binding to 15N K18 tau by NMR (peak broadening / CSPs) ([6]; listed as full-length Hsp27): no broadening or CSPs
Effect on aggregation of 0N4R tau (ThT fluorescence) [5]: prevents aggregation
TM [8, 12]: 73.1 ± 1.1 °C
TM ([8]; Supplementary Figure 8A): 72.2 ± 1.0 °C

Second part, led by results:

BAG3 binding [2]: deficient in BAG3 binding
Substance: L157A ACD: Hsp27 ACD mutant L157A

Binding to 15N K18 tau by NMR (peak broadening / CSPs) [6]: weak and unsaturable
IC50 [7]: > 100 µM
Substance: Hsp27 ACD: α-crystallin domain of human Hsp27 (residues Q80–S176)
Effect on aggregation of K18 tau (ThT fluorescence) [4]: no effect
Effect on aggregation of 0N4R tau (ThT fluorescence) [5]: no effect

Binding to 15N K18 tau by NMR (peak broadening / CSPs) [6]: bound to K18
Substance: GPG: Hsp27 with isoleucine and valine of the IPV mutated to glycine
TM [8, 12]: 66.8 ± 0.3 °C

Kd [9]: 14.3 µM
Kd [10]: does not bind
Kd [11]: > 50 µM
Substance: EITIPVTHE [Hsp27 IPV H]

Binding to 15N K18 tau by NMR (peak broadening / CSPs) [6]: binds to K18’s aggregation motifs
Substance: 3D: pseudo-phosphorylation mutant; S15, S78 and S82 replaced with aspartate
Effect on aggregation of 0N4R tau (ThT fluorescence) [5]: retains the ability to prevent tau aggregation
TM ([8]; Supplementary Figure 8A): 72.2 ± 0.85 °C

From article PMC6212398, “Competing protein-protein interactions regulate binding of Hsp27 to its client protein tau” (Nature Communications, 2018)
